In patent US9994587B2, “HIV protease inhibitors” (priority 2014, dated 2018) one finds IC50 data, which are given here for 19 molecules.

One assay addresses T1, wildtype HIV-1 protease (Human immunodeficiency virus type 1 group M subtype B, UniProt P04585).
T1 construct: preincubated with the HIV-1 protease (wild type) enzyme in assay buffer; made in house; host or cells: Escherichia coli
Briefly: Assay for inhibition of microbial expressed HIV protease (Pepcleav). The format is biochemical. To be noted: wild type HIV-1 protease 20 pM, peptide substrate 400 micromolar, pH 5.5; mean of at least two independent experiments. An outline of the steps:
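E. coli-expressed enzyme preincubated with inhibitor 30 min at room temperature in 50 mM sodium acetate pH 5.5, 100 mM NaCl, 0.1% BSA, then 400 micromolar peptide substrate added with 20 picomolar protease (final), 1 h at 30° C. Product quantified by LC-MS/MS peak area after formic acid/indinavir quench.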

The subject of a further assay is HIV-1 (NL4-3 strain). Briefly: Viral Kinetics GFP Reporter (ViKinG) assay. To be noted: Human immunodeficiency virus 1, NL43; 50% NHS; MT4-GFP cells infected with HIV-1 NL4-3; mean of at least two independent experiments. The format is cell-based. The text has this: Viral Kinetics GFP Reporter (ViKinG) Assay
The ViKinG assay is an in vitro kinetic assay that employs the MT4-gag-GFP reporter cell line (Wang et al., “Assessment of the susceptibility of mutant HIV-1 to antiviral agents.” J Virological Methods 165:230-37 (2010)) to quantify the number of new cells infected in each round of replication. The purpose of the ViKinG assay is to identify agents that inhibit HIV progression. Briefly, HIV infection results in tat transactivation of the stably expressed HIV LTR promoter to drive gagGFP expression. Thus, an increase in the number of GFP-MT4 cells results following HIV infection.
MT4-GFP cells (250,000 cells/ml) were bulk-infected with HIV-1 (NL4-3 strain) at low multiplicity of infection (MOI) in RPMI+10% FBS for 24 hours. Cells were then washed once in RPMI+10% FBS and resuspended RPMI+10% or 50% normal human serum (NHS). Test compounds were serial-diluted in DMSO on an ECHO® liquid handling platform (Labcyte Corp., Sunnyvale, Calif.), along with a triple drug control (integrase, protease and NNRTI compounds). The infected MT4-GFP cells were added to a 384-well poly-D-lysine coated black plate with clear bottom in which the diluted test compounds were placed. The cells were seeded at 8,000 cells per well and the final DMSO concentration was 0.4%. The infected cells (Green GFP cells) were quantified at both 24 and 48 hours post incubation using Acumen® eX3 (TTP Labtech Ltd., Hertfordshire, United Kingdom). Viral reproductive ratio (R0) was determined using the number of infected cells at 48 hours divided by the number of infected cells at 24 hours. Percent viral growth inhibition was calculated by [1−(R−Rtripledrug)/(RDMSO−Rtripledrug)]*100. Compound potency IP or IC50 was determined by a 4-parameter dose response curve analysis.

Usually IC50 stands for the concentration that gives 50% inhibition. Read a low IC50 as inhibition by little substance.

With `N[C@H](C(=O)Nc1cccc(F)c1CC[C@@H]1CNC[C@@H](CSc2nnc(-c3ccncc3)o2)O1)C(c1ccc(F)cc1)c1ccc(F)cc1` [Example 91, 4-fluoro-β-(4-fluorophenyl)-N-(3-fluoro-2-{2-[(2R,6S)-6-{[(5-pyridin-4-yl-1,3,4-oxadiazol-2-yl)sulfanyl]methyl}morpholin-2-yl]ethyl}phenyl)-L-phenylalaninamide], the concentration for half-maximal inhibition (IC50) is 0.00025 µM against wildtype HIV-1 protease and 0.02 µM in the assay on HIV-1 (NL4-3 strain).

Turning to `CS(=O)(=O)N1CCC2(CC1)CNC[C@@H](CCc1c(F)cccc1NC(=O)[C@@H](N)[C@@H](c1ccc(Cl)cc1)c1cc(F)cc(F)c1)O2` [Example 93, (βS)-4-chloro-β-(3,5-difluorophenyl)-N-(3-fluoro-2-{2-[(2R)-9-(methylsulfonyl)-1-oxa-4,9-diazaspiro[5.5]undec-2-yl]ethyl}phenyl)-L-phenylalaninamide], the IC50 on wildtype HIV-1 protease was 0.011 µM; with HIV-1 (NL4-3 strain) it was 0.046 µM.

For `COC(=O)N[C@H](C(=O)Nc1cccc(F)c1CC[C@@H]1CNCC2(CCN(S(C)(=O)=O)CC2)O1)[C@@H](c1ccc(Cl)cc1)c1cc(F)cc(F)c1` [Example 94, methyl {(1 S,2S)-2-(4-chlorophenyl)-2-(3,5-difluorophenyl)-1-[(3-fluoro-2-{2-[(2R)-9-(methylsulfonyl)-1-oxa-4,9-diazaspiro[5.5]undec-2-yl]ethyl}phenyl)carbamoyl]ethyl}carbamate], the IC50 on wildtype HIV-1 protease came out at 0.011 µM; in the assay with HIV-1 (NL4-3 strain), 0.042 µM.

`COC(=O)N[C@H](C(=O)Nc1cncc(F)c1CC[C@@H]1CNCC2(CCOCC2)O1)[C@@H](c1ccc(Cl)cc1)c1cc(F)cc(F)c1` [Example 98, methyl {(1S,2S)-2-(4-chlorophenyl)-2-(3,5-difluorophenyl)-1-[(4-{2-[(2R)-1,9-dioxa-4-azaspiro[5.5]undec-2-yl]ethyl}-5-fluoropyridin-3-yl)carbamoyl]ethyl}carbamate]: the IC50 against wildtype HIV-1 protease amounted to 0.029 µM; in the assay with HIV-1 (NL4-3 strain), 0.088 µM.

`N[C@H](C(=O)Nc1cncc(F)c1CC[C@@H]1CNCC2(CCOCC2)O1)C(c1ccc(F)cc1)c1ccc(F)cc1` [Example 101, N-(4-{2-[(2R)-1,9-dioxa-4-azaspiro[5.5]undec-2-yl]ethyl}-5-fluoropyridin-3-yl)-4-fluoro-β-(4-fluorophenyl)-L-phenylalaninamide] displayed an IC50 in the assay on HIV-1 (NL4-3 strain) of 0.11 µM.

Turning to `N[C@H](C(=O)Nc1cncc(F)c1CC[C@@H]1CNCC2(CCCC2)O1)C(c1ccc(F)cc1)c1ccc(F)cc1` [Example 150, 4-fluoro-N-(5-fluoro-4-{2-[(7R)-6-oxa-9-azaspiro[4.5]dec-7-yl]ethyl}pyridin-3-yl)-β-(4-fluorophenyl)-L-phenylalaninamide], in the assay on HIV-1 (NL4-3 strain), the IC50 turned out to be 0.27 µM.

In the case of `COC(=O)N[C@H](C(=O)Nc1cccc(F)c1CC[C@@H]1CNCC2(CCN(C(C)=O)CC2)O1)[C@@H](c1ccc(Cl)cc1)c1cc(F)cc(F)c1` [Example 151, methyl{(1S)-2-[(2-{2-[(2R)-9-acetyl-1-oxa-4,9-diazaspiro[5.5]undec-2-yl]ethyl}-3-fluorophenyl)amino]-1-[(S)-(4-chlorophenyl)(3,5-difluorophenyl)methyl]-2-oxoethyl}carbamate], the IC50 in the assay with HIV-1 (NL4-3 strain) was 0.17 µM.

With `CC(=O)N1CCC2(CC1)CNC[C@@H](CCc1c(F)cncc1NC(=O)[C@@H](N)[C@@H](c1ccc(Cl)cc1)c1cc(F)cc(F)c1)O2` [Example 152, (βS)-N-(4-{2-[(2R)-9-acetyl-1-oxa-4,9-diazaspiro[5.5]undec-2-yl]ethyl}-5-fluoropyridin-3-yl)-4-chloro-β-(3,5-difluorophenyl)-L-phenylalaninamide], it took 0.32 µM to reach half-maximal inhibition in the assay with HIV-1 (NL4-3 strain) (IC50).

`COC(=O)N[C@H](C(=O)Nc1cncc(F)c1CC[C@@H]1CNCC2(CCN(C(C)=O)CC2)O1)[C@@H](c1ccc(Cl)cc1)c1cc(F)cc(F)c1` [Example 153, methyl{(1S)-2-[(4-{2-[(2R)-9-acetyl-1-oxa-4,9-diazaspiro[5.5]undec-2-yl]ethyl}-5-fluoropyridin-3-yl)amino]-1-[(S)-(4-chlorophenyl)(3,5-difluorophenyl)methyl]-2-oxoethyl}carbamate] came in with a 50% inhibitory concentration (IC50) with HIV-1 (NL4-3 strain) of 0.31 µM.

`CS(=O)(=O)N1CCC2(CC1)CNC[C@@H](CCc1c(F)cncc1NC(=O)[C@@H](N)[C@@H](c1ccc(Cl)cc1)c1cccc(OC(F)(F)F)c1)O2` [Example 154, (βS)-β-(4-chlorophenyl)-N-(5-fluoro-4-{2-[(2R)-9-(methylsulfonyl)-1-oxa-4,9-diazaspiro[5.5]undec-2-yl]ethyl}pyridin-3-yl)-3-(trifluoromethoxy)-L-phenylalaninamide] returned a 50% inhibitory concentration (IC50) in the assay with HIV-1 (NL4-3 strain) of 0.3 µM.

As for `N[C@H](C(=O)Nc1cncc(F)c1CC[C@@H]1CNCC2(CCOCC2)O1)[C@@H](c1ccc(Cl)cc1)c1cc(F)cc(F)c1` [Example 155, (βS)-4-chloro-β-(3,5-difluorophenyl)-N-(4-{2-[(2R)-1,9-dioxa-4-azaspiro[5.5]undec-2-yl]ethyl}-5-fluoropyridin-3-yl)-L-phenylalaninamide], the IC50 in the assay with HIV-1 (NL4-3 strain) was 0.14 µM.

Turning to `N[C@H](C(=O)Nc1cncc(F)c1CC[C@@H]1CNCC2(CCOCC2)O1)[C@@H](c1ccc(Cl)cc1)c1cccc(OC(F)(F)F)c1` [Example 156, (βS)-4-chloro-N-(4-{2-[(2R)-1,9-dioxa-4-azaspiro[5.5]undec-2-yl]ethyl}-5-fluoropyridin-3-yl)-β-[3-(trifluoromethoxy)phenyl]-L-phenylalaninamide], in the assay with HIV-1 (NL4-3 strain), the IC50 was 0.48 µM.

On to `COC(=O)N[C@H](C(=O)Nc1cncc(F)c1CC[C@@H]1CNCC2(CCOCC2)O1)[C@@H](c1ccc(Cl)cc1)c1cccc(OC(F)(F)F)c1` [Example 157, methyl{(1S,2S)-2-(4-chlorophenyl)-1-[(4-{2-[(2R)-1,9-dioxa-4-azaspiro[5.5]undec-2-yl]ethyl}-5-fluoropyridin-3-yl)carbamoyl]-2-[3-(trifluoromethoxy)phenyl]ethyl}carbamate], for which the IC50 with HIV-1 (NL4-3 strain) was 0.21 µM.

As for `N[C@H](C(=O)Nc1cncc(F)c1CC[C@@H]1CNCC2(CCOCC2)O1)[C@@H](c1ccc(Cl)cc1)C1CCOCC1` [Example 158, (βR)-4-chloro-N-(4-{2-[(2R)-1,9-dioxa-4-azaspiro[5.5]undec-2-yl]ethyl}-5-fluoropyridin-3-yl)-β-(tetrahydro-2H-pyran-4-yl)-L-phenylalaninamide], the midpoint of inhibition in the assay with HIV-1 (NL4-3 strain), the IC50, lay at 0.39 µM.

Regarding `N[C@H](C(=O)Nc1cccc(F)c1CC[C@@H]1CNCC2(CCOCC2)O1)[C@@H](c1ccc(Cl)cc1)C1CCOCC1` [Example 159, (βR)-4-chloro-N-(2-{2-[(2R)-1,9-dioxa-4-azaspiro[5.5]undec-2-yl]ethyl}-3-fluorophenyl)-β-(tetrahydro-2H-pyran-4-yl)-L-phenylalaninamide], inhibition in the assay on HIV-1 (NL4-3 strain) was half-maximal at 0.49 µM (IC50).

On to `COC(=O)N[C@H](C(=O)Nc1cncc(F)c1CC[C@@H]1CNCC2(CCOCC2)O1)[C@@H](c1ccc(Cl)cc1)C1CCOCC1` [Example 160, methyl[(1S,2R)-2-(4-chlorophenyl)-1-[(4-{2-[(2R)-1,9-dioxa-4-azaspiro[5.5]undec-2-yl]ethyl}-5-fluoropyridin-3-yl)carbamoyl]-2-(tetrahydro-2H-pyran-4-yl)ethyl]carbamate], for which half-maximal inhibition in the assay on HIV-1 (NL4-3 strain) (IC50) required 0.35 µM.

In the assay with HIV-1 (NL4-3 strain), `COC(=O)N[C@H](C(=O)Nc1cccc(F)c1CC[C@@H]1CNCC2(CCOCC2)O1)[C@@H](c1ccc(Cl)cc1)C1CCOCC1` [Example 161, methyl[(1S,2R)-2-(4-chlorophenyl)-1-[(2-{2-[(2R)-1,9-dioxa-4-azaspiro[5.5]undec-2-yl]ethyl}-3-fluorophenyl)carbamoyl]-2-(tetrahydro-2H-pyran-4-yl)ethyl]carbamate] gave an IC50 of 0.13 µM.

The molecule `N[C@H](C(=O)Nc1cccc(F)c1CC[C@@H]1CNCC2(CCOC2)O1)[C@@H](c1ccc(Cl)cc1)c1cc(F)cc(F)c1` (stereo partly drawn) [Example 162, (βS)-4-chloro-β-(3,5-difluorophenyl)-N-(2-{2-[(7R)-2,6-dioxa-9-azaspiro[4.5]dec-7-yl]ethyl}-3-fluorophenyl)-L-phenylalaninamide] registered a half-inhibitory concentration (IC50) in the assay with HIV-1 (NL4-3 strain) of 0.18 µM.

As to `COC(=O)N[C@H](C(=O)Nc1cccc(F)c1CC[C@@H]1CNCC2(CCOC2)O1)[C@@H](c1ccc(Cl)cc1)c1cc(F)cc(F)c1` (stereo partly drawn) [Example 163, methyl{(1S,2S)-2-(4-chlorophenyl)-2-(3,5-difluorophenyl)-1-[(2-{2-[(7R)-2,6-dioxa-9-azaspiro[4.5]dec-7-yl]ethyl}-3-fluorophenyl)carbamoyl]ethyl}carbamate], 0.15 µM corresponded to half-maximal inhibition with HIV-1 (NL4-3 strain) (IC50).
